Measured values from patent publication US8524737B2, “Bi- and polycyclic substituted isoquinoline and isoquinolinone derivatives” (Sanofi, priority 2008, dated 2013).

Target: T1, human recombinant ROCK II (Homo sapiens, UniProt O75116)
T1 construct: recombinant human ROCK-II residues 11-552; His6 (N); purchased Millipore GmbH, Schwalbach, Germany
Assay: Determination of Rho Kinase Inhibition (ROCK II, Caliper peptide phosphorylation assay)
Assay type: biochemical
Details: tested in the form (salt or free base) obtained in the examples
Description: Determination of Rho Kinase Inhibition To measure Rho-kinase inhibition, IC50 values were determined according to the following protocol: Active human recombinant ROCK II (N-terminal His6-tagged recombinant human ROCK-II residues 11-552) was purchased from Millipore GmbH, Schwalbach, Germany. The peptide substrate, Fluorescein-AKRRRLSSLRA-COOH, was obtained from JPT Peptide Technologies, Berlin, Germany. Adenosine-5′-triphosphate (ATP), bovine serum albumine (BSA), dimethylsulphoxide (DMSO), 4-(2-hydroxyethyl)piperazine-1-ethanesulfonic acid (Hepes), Brij-35, dithiothreitol (DTT) and Pluronic F-68 were purchased from Sigma-Aldrich, Munich, Germany. Tris(hydroxymethyl)-aminomethane (Tris), magnesium chloride, NaOH, 1M HCl and EDTA were obtained from Merck Biosciences, Darmstadt, Germany. “Complete” protease inhibitor was from Roche Diagnostics, Mannheim, Germany. Test compounds were diluted to the appropriate concentrations in buffer 1 (25 mM Tris-HCl, pH 7.4, 5 mM MgCl2, 2 mM DTT, 0.02% (w/v) BSA, 0.01% Pluronic F-68 and 3% DMSO). The ROCK II enzyme was diluted to a concentration of 100 ng/ml in buffer 2 (25 mM Tris-HCl, pH 7.4, 5 mM MgCl2, 2 mM DTT and 0.02% (w/v) BSA). The peptide substrate and ATP were diluted to concentrations of 3 μM and 120 μM, respectively, in the buffer 2. Two μl of the compound solution were mixed with 2 μl of the diluted enzyme in a 384-well small volume microtiter plate (Greiner, Bio-One, Frickenhausen, Germany), and the kinase reaction was initiated by addition of 2 μl of the solution containing peptide substrate and ATP. After 60 min incubation at 32° C., the reaction was stopped by addition of 20 μl of a solution containing 100 mM Hepes-NaOH, pH 7.4, 0.015% (v/v) Brij-35, 45 mM EDTA and 0.227% chip coating reagent 1 (Caliper Lifescience Inc, Hopkinton, Mass.). Phosphorylation of the substrate peptide was then detected on a Caliper 3000 instrument essentially as described by Pommereau et al (J. Biomol. Screening 2004, 9(5), 409-416). Separation conditions were as follows: Pressure −1.3 psi, upstream voltage −1562 V, downstream voltage −500 V, sample sip time 200 ms. Positive controls (buffer 1 instead of compound) and negative controls (buffer 1 instead of compound and buffer 2 instead of ROCK II) were run in parallel on each plate. The following products/compounds were tested in said assay by using the respective form (salt or free base) obtained as in the examples described above and the following activities were measured

T1 sequence (O75116 11-552): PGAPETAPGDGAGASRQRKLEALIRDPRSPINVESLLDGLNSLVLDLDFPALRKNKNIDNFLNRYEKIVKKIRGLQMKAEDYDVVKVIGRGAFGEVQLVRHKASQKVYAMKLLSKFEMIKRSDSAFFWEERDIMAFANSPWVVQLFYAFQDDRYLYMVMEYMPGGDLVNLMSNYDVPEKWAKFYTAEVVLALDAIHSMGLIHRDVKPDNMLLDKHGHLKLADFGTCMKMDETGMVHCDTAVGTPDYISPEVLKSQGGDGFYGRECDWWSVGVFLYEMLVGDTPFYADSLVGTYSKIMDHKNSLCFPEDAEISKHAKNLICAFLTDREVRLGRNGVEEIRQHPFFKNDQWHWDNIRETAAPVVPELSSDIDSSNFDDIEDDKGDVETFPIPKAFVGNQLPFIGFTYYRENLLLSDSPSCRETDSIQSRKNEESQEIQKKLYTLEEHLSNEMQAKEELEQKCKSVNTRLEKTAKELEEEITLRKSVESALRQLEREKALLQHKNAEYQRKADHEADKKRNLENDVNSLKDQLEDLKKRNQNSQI

SMILES	pIC50	IC50 [nM]
O=c1[nH]ccc2cc(OC34CC5CC(C3)C(NCc3ccccc3)C(C5)C4)c(Cl)cc12 (single isomer, unassigned) [Example 12, 6-(4-Benzylamino-adamantan-1-yloxy)-7-chloro-2H-isoquinolin-1-one]		100 to 1000
C=CCC1(N)C2CC3CC1CC(Oc1cc4cc[nH]c(=O)c4cc1Cl)(C3)C2 (single isomer, unassigned) [Example 3, 6-(4-Allyl-4-amino-adamantan-1-yloxy)-7-chloro-2H-isoquinolin-1-one]		10 to 100
C=CCC1(N)C2CC3CC1CC(Oc1cc4cc[nH]c(=O)c4cc1Cl)(C3)C2 (single isomer, unassigned) [Example 4, 6-(4-Allyl-4-amino-adamantan-1-yloxy)-7-chloro-2H-isoquinolin-1-one]		100 to 1000
CCCC1(N)C2CC3CC1CC(Oc1cc4cc[nH]c(=O)c4cc1Cl)(C3)C2 (single isomer, unassigned) [Example 6, 6-(4-Amino-4-propyl-adamantan-1-yloxy)-7-chloro-2H-isoquinolin-1-one]		100 to 1000
CC1(N)C2CC3CC1CC(Oc1cc4cc[nH]c(=O)c4cc1Cl)(C3)C2 (single isomer, unassigned) [Example 8, 6-(4-Amino-4-methyl-adamantan-1-yloxy)-7-chloro-2H-isoquinolin-1-one]		10 to 100
NC1(C2CC2)C2CC3CC1CC(Oc1cc4cc[nH]c(=O)c4cc1Cl)(C3)C2 (single isomer, unassigned) [Example 11, 6-(4-Amino-4-cyclopropyl-adamantan-1-yloxy)-7-chloro-2H-isoquinolin-1-one]		10 to 100
CCCC1(N)C2CC3CC1CC(Oc1cc4cc[nH]c(=O)c4cc1Cl)(C3)C2 (single isomer, unassigned) [Example 5, 6-(4-Amino-4-propyl-adamantan-1-yloxy)-7-chloro-2H-isoquinolin-1-one]		10 to 100
NC1(c2ccccc2)C2CC3CC1CC(Oc1cc4cc[nH]c(=O)c4cc1Cl)(C3)C2 (single isomer, unassigned) [Example 9, 6-(4-Amino-4-phenyl-adamantan-1-yloxy)-7-chloro-2H-isoquinolin-1-one]		100 to 1000
NC1C2CC3CC1CC(Oc1cc4cc[nH]c(=O)c4cc1Cl)(C3)C2 (single isomer, unassigned) [Example 1, 6-(4-Amino-adamantan-1-yloxy)-7-chloro-2H-isoquinolin-1-one]		10 to 100

Next, values leading:

pIC50	IC50 [nM]	SMILES
+++++++ (8.0≦pIC50)		Cc1cc2c(=O)[nH]ccc2cc1OC1C2CC3CC1CC(N)(C3)C2 (single isomer, unassigned) [Example 16, 6-(5-Amino-adamantan-2-yloxy)-7-methyl-2H-isoquinolin-1-one]
	10 to 100	N[C@H]1C[C@H]2COC[C@@H](C1)[C@H]2Oc1cc2cc[nH]c(=O)c2cc1Cl [Example 17, 6-{[(7-Endo,9-anti)-7-amino-3-oxabicyclo[3.3.1]non-9-yl]oxy}-7-chloroisoquinolin-1(2H)-one]
	10 to 100	O=c1[nH]ccc2cc(O[C@H]3CC[C@@]4(CCCN4)CC3)c(Cl)cc12 [Example 22, 6-(1-Aza-spiro[4.5]dec-8-yloxy)-7-chloro-2H-isoquinolin-1-one]
	≤ 10	N[C@]12CC3CC(C1)[C@@H](Oc1cc4cc[nH]c(=O)c4cc1Cl)C(C3)C2 (single isomer, unassigned) [Example 15, Trans-6-(5-Amino-adamantan-2-yloxy)-7-chloro-2H-isoquinolin-1-one]
	≤ 10	N[C@]12CC3CC(C1)[C@H](Oc1cc4cc[nH]c(=O)c4cc1Cl)C(C3)C2 (single isomer, unassigned) [Example 14, Cis-6-(5-Amino-adamantan-2-yloxy)-7-chloro-2H-isoquinolin-1-one]
	10 to 100	N[C@H]1C[C@H]2COC[C@@H](C1)[C@@H]2Oc1cc2cc[nH]c(=O)c2cc1Cl [Example 18, 6-{[(7-endo,9-syn)-7-amino-3-oxabicyclo[3.3.1]non-9-yl]oxy}-7-chloroisoquinolin-1(2H)-one]
	100 to 1000	NC12C[C@H]3C[C@@H](C1)CC(Oc1cc4cc[nH]c(=O)c4cc1Cl)(C3)C2 [Example 13, 6-(3-Amino-adamantan-1-yloxy)-7-chloro-2H-isoquinolin-1-one]
	10 to 100	N[C@H]1C[C@H]2CSC[C@@H](C1)[C@@H]2Oc1cc2cc[nH]c(=O)c2cc1Cl [Example 20, 6-{[(7-endo,9-syn)-7-amino-3-thiabicyclo[3.3.1]non-9-yl]oxy}-7-chloroisoquinolin-1(2H)-one]
	10 to 100	N[C@H]1C[C@H]2CSC[C@@H](C1)[C@H]2Oc1cc2cc[nH]c(=O)c2cc1Cl [Example 19, 6-{[(7-Endo,9-anti)-7-amino-3-thiabicyclo[3.3.1]non-9-yl]oxy}-7-chloroisoquinolin-1(2H)-one]
